According to patent US10829464B2, “Benzoheterocyclic alkylamine compounds and use thereof” (priority 2016, dated 2020):
≈ marks a conversion by molar mass, not a printed value. Structures can show the parent of a compound that is named as a salt.

How the values were obtained:
strain Newman = experiment: In vivo pharmacodynamics evaluation in infected mice; settings: BALB/c mice infected retroorbitally with Newman
Protocol: (§1) Compound IA-25 was used as a representative compound. The laboratory SPF-grade female BALB/c mice were purchased from Shanghai Jiesijie Laboratory Animal Co., Ltd. and bred under aseptic condition to 6-8 weeks old. The S. aureus strains which had been cultured overnight were transferred to fresh and sterile TSB medium and cultured at 37° C. and 250 rpm for 3 h to exponential growth phase; the culture was washed twice with PBS buffer, and then suspended in PBS for later use. In the mouse infection assay, the mice were divided into several groups, each containing 10 mice.

Mu50 = experiment: as above; settings: BALB/c mice infected retroorbitally with Mu50
Protocol: as §1

LRSA202 = experiment: as above; settings: BALB/c mice infected retroorbitally with LRSA202
Protocol: as §1

LRSA56 = experiment: as above; settings: BALB/c mice infected retroorbitally with LRSA56
Protocol: as §1

NRS271 = experiment: as above; settings: BALB/c mice infected retroorbitally with NRS271
Protocol: as §1

NF65Y = experiment: as above; settings: BALB/c mice infected retroorbitally with NF65Y
Protocol: as §1

NRS108 = experiment: as above; settings: BALB/c mice infected retroorbitally with NRS108
Protocol: as §1

HEK293 = experiment: In vitro cytotoxicity assay
HepG2 = experiment: In vitro cytotoxicity assay
Tinea barbae = experiment: In vitro antifungal assay (micro liquid-based dilution); assay type: cell-based; settings: read-out: Antifungal Activities, MIC80
Microsporum gypseum = experiment: as above; assay type: cell-based; settings: Nannizzia gypsea, read-out: Antifungal Activities, MIC80
Trichophyton rubrum = experiment: as above; assay type: cell-based; settings: read-out: Antifungal Activities, MIC80
[1] = system: wild-type S. aureus Newman strain; experiment: Verification assay using CrtN as a target (HPLC of carotenoid extract); assay type: cell-based, Staphylococcus aureus; settings: 100 μM added to wild-type strain Newman, 440 nm
[2] = system: Staphylococcus aureus subsp. aureus str. strain Newman; experiment: Preliminary screening assay of inhibition of staphyloxanthin synthesis; assay type: cell-based; settings: 50, 10, 5, 2.5, 1.25, 0.625, 0.3125 and 0 μM from left to right
Protocol: Strains used for assay: freshly activated wild-type Staphylococcus aureus subsp. aureus str. strain Newman and its homologous mutant strain having crtN insertion (without staphyloxanthin synthesis).
Medium for assay: Tryptone Soy broth (TSB), a product from Oxid Corporation, the United Kingdom, which was formulated with distilled water, sterilized at 121° C. for 15 min for later use.
Method of Preliminary Screening Assay:
(1) Preparation of compound: the compound of the invention was dissolved in dimethyl sulfoxide (DMSO) to prepare a stock solution having a concentration of 10 mM; 400 μL of DMSO was added to 100 μL of the stock solution to get a dilution with a concentration of 2 mM; 250 μL (2 mM) of the dilution was taken after mixing, and an equal amount of DMSO was added thereto for 2-fold dilution to get a solution with a concentration of […] for later use.
(2) Culture of the strain: single colonies of strain Newman were picked from TSA plates into a test tube containing 4 mL of sterile TSB medium, and cultured at 37° C. and 250 rpm for 12 h for later use.

S. aureus strain Newman = experiment: IC50 determination of inhibition of staphyloxanthin synthesis; assay type: cell-based; settings: Staphylococcus aureus; S. aureus strain Newman, Table 1; read-out: IC50, inhibitory activity on staphyloxanthin synthesis
Protocol: Selection of compound concentrations: based on the preliminary screening results, the ability of each compound to inhibit staphyloxanthin synthesis was determined. […] According to the assay results, 10 different concentration gradients were designed for each compound, such that the ability to inhibit staphyloxanthin synthesis comprised substantially from 0% to 100%.
Culture of the strains: single colonies of strain Newman and crtN mutant strain were picked from TSA plates, added into test tubes containing 4 mL of sterile TSB medium, and cultured at 37° C. and 250 rpm for 12 h for later use.
The relative level of staphyloxanthin synthesis at each concentration of the compound of the invention=A450 (sample)/A450 (negative control)*100%. With the molar concentration of the compound as the abscissa and the relative level of staphyloxanthin synthesis as the ordinate, a curve fitting of inhibitor concentration-inhibition rate (log(inhibitor) vs response) was performed in Graphpad prism 5.0 software, and the IC50 of the compound for inhibiting staphyloxanthin synthesis was calculated by software based on the fitting results.
S. aureus was selected for IC50 determination with respect to activity of inhibiting staphyloxanthin synthesis. […]

CYP enzyme subtype 2C19 = CYP enzyme subtype 2C19 (Homo sapiens, UniProt P33261); experiment: Inhibition assay on hepatic CYP450 enzyme; assay type: in vitro ADME; settings: CYP 2C19; read-out: Half inhibitory concentration (IC50)
CYP enzyme subtype 2C19, sequence (P33261 whole entry): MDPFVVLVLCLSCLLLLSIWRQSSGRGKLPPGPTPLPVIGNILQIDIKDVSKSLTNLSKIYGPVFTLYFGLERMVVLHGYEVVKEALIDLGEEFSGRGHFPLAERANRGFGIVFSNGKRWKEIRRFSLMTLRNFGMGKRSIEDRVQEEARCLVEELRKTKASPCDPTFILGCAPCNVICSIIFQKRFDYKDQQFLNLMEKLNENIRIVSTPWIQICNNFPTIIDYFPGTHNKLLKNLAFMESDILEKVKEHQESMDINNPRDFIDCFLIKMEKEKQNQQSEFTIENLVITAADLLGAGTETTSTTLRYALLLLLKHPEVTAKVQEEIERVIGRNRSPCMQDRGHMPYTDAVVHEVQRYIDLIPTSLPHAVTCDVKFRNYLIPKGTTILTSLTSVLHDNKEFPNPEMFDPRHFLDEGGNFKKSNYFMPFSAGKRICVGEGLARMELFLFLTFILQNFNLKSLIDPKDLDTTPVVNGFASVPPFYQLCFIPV

## CC(=O)NC[C@H]1CN(c2ccc(N3CCOCC3)c(F)c2)C(=O)O1 [Linezolid]
Strain Newman
  Viable colony counts in vivo: 4.9 Log10CFU
Mu50
  Viable colony counts in vivo: 3.1 Log10CFU
LRSA202
  Viable colony counts in vivo: 4.6 Log10CFU
LRSA56
  Viable colony counts in vivo: 4.6 Log10CFU
NRS271
  Viable colony counts in vivo: 8.3 Log10CFU
NF65Y
  Viable colony counts in vivo: 5.1 Log10CFU
NRS108
  Viable colony counts in vivo: 2.3 Log10CFU

## C[C@@H]1[C@H](O)[C@@H](C)/C=C/C=C/C=C/C=C/C=C/C=C/C=C/[C@H](O[C@@H]2O[C@H](C)[C@@H](O)[C@H](N)[C@@H]2O)C[C@@H]2O[C@](O)(C[C@@H](O)C[C@@H](O)[C@H](O)CC[C@@H](O)C[C@@H](O)CC(=O)O[C@H]1C)C[C@H](O)[C@H]2C(=O)O [Amphotericin B]
HEK293
  CC50 of compounds on cells: 3.923 µg/mL
HepG2
  CC50 of compounds on cells: 2.956 µg/mL

## CC(=O)N1CCN(c2ccc(OCC3COC(Cn4ccnc4)(c4ccc(Cl)cc4Cl)O3)cc2)CC1 (centres unmarked) [Ketoconazole]
Tinea barbae
  MIC80: 0.0625 µg/mL (≈ 0.118 µM)
Microsporum gypseum
  MIC80: 2 µg/mL (≈ 3.76 µM)
Trichophyton rubrum
  MIC80: 0.5 µg/mL (≈ 0.941 µM)

## CN(C/C=C/c1ccccc1)Cc1cccc2ccccc12 [naftifine hydrochloride, reference compound]
[1]
  HPLC absorption peaks of carotenoid extract: absorption peaks at the original peak position disappeared again

## C[C@@H](c1ncncc1F)[C@](O)(Cn1cncn1)c1ccc(F)cc1F [Voriconazole]
Tinea barbae
  MIC80: 0.0312 µg/mL (≈ 0.0895 µM)
Microsporum gypseum
  MIC80: 0.25 µg/mL (≈ 0.716 µM)
Trichophyton rubrum
  MIC80: 0.0312 µg/mL (≈ 0.0895 µM)

## OC(Cn1cncn1)(Cn1cncn1)c1ccc(F)cc1F [Fluconazole]
Tinea barbae
  MIC80: 2 µg/mL (≈ 6.53 µM)
Microsporum gypseum
  MIC80: 8 µg/mL (≈ 26.1 µM)
Trichophyton rubrum
  MIC80: 1 µg/mL (≈ 3.27 µM)

## CN(Cc1coc2ccccc12)C[C@@H]1C[C@H]1c1ccc(-c2ccccc2)cc1 [Compound IC-1, 1-((1R,2R)-2-([1,1′-biphenyl]-4-yl)cyclopropyl)-N-(benzofuran-3-ylmethyl)-N-methylmethanamine]
[2]
  colors in final photograph of inhibition of staphyloxanthin synthesis: white to yellow from left to right gradually
S. aureus strain Newman
  IC50: > 1 µM

## CN[C@H](CC(C)C)C(=O)N[C@H]1C(=O)N[C@@H](CC(N)=O)C(=O)N[C@H]2C(=O)N[C@H]3C(=O)N[C@H](C(=O)N[C@H](C(=O)O)c4cc(O)cc(O)c4-c4cc3ccc4O)[C@H](O)c3ccc(c(Cl)c3)Oc3cc2cc(c3O[C@@H]2O[C@H](CO)[C@@H](O)[C@H](O)[C@H]2O[C@H]2C[C@](C)(N)[C@H](O)[C@H](C)O2)Oc2ccc(cc2Cl)[C@H]1O [Vancomycin]
Strain Newman
  Viable colony counts in vivo: 4.3 Log10CFU
Mu50
  Viable colony counts in vivo: 5.4 Log10CFU
LRSA202
  Viable colony counts in vivo: 5.3 Log10CFU
LRSA56
  Viable colony counts in vivo: 3.8 Log10CFU
NRS271
  Viable colony counts in vivo: 6.5 Log10CFU
NF65Y
  Viable colony counts in vivo: 4.6 Log10CFU
NRS108
  Viable colony counts in vivo: 2.4 Log10CFU

## CN(C/C=C/c1ccccc1C(F)(F)F)Cc1coc2ccccc12 [Compound IA-30, (E)-N-methyl-N-[(benzofuran-3-yl)methylene]-3-(2-trifluoromethylphenyl)-prop-2-en-1-amine]
S. aureus strain Newman
  IC50: > 1 µM

## COc1ccc2[nH]c([S+]([O-])Cc3ncc(C)c(OC)c3C)nc2c1 (centres unmarked) [omeprazole, reference compound]
CYP enzyme subtype 2C19
  IC50: 3.88 µM

## CC(C)N(C/C=C/c1ccc(C(F)(F)F)cc1)Cc1coc2ccccc12 [Compound IB-3, (E)-N-isopropyl-N-[(benzofuran-3-yl)methylene]-3-(4-trifluoromethylphenyl)-prop-2-en-1-amine]
S. aureus strain Newman
  IC50: > 1 µM

## CN(C/C=C/c1ccco1)Cc1coc2ccccc12 [Compound IA-14]
S. aureus strain Newman
  IC50: > 1 µM
